Assay results taken from patent publication US12263172B2, “Toll-like receptor agonists for use in the treatment of hepatitis b” (priority 2019, dated 2025).

Legend:
[1] = molecular target: CYP3A4 (Homo sapiens, UniProt P08684); experiment: CYP3A4 substrate and inhibition; assay type: in vitro ADME
Description: (§1) Exposure increased more than dose-proportionally at low doses. Variability in exposure was high. • In vitro plasma protein binding was between 79.6% and 94.2% in animals and humans. Volume of distribution after intravenous dosing was high. […] Main metabolic pathways were oxygenation, hydrogenation, dehydrogenation, dealkylation, acetylation, glucuronidation, and/or glutathione conjugation. • In rats, >80% of drug-related material was found in feces, 11% to 20% in bile, and <4% in urine. […] There were no effects on embryofetal development up to 1 mg/kg/dose in rats and 30 mg/kg/dose in rabbits.

[2] = off-target liabilities in vitro; settings: read-out: lowest IC50 for off-target liabilities
Description: as §1

[3] = respiratory and central nervous system safety pharmacology in rats; settings: rat, in vivo
Description: as §1

[4] = test system: cytokines and ISGs (ISG15, MX1, OAS1); experiment: Phase 1 single oral dose pharmacodynamics (serum cytokines, whole blood ISGs) in healthy adults; assay type: in vivo, human
Method: IFN-α was assessed by an enzyme-linked immunosorbent assay; 13 other cytokines (granulocyte colony stimulating factor [GCSF], granulocyte macrophage colony stimulating factor [GMCSF], IFN-γ, IFN-γ-induced protein 10 [IP-10], interleukin [IL] 1β, IL-1 receptor antagonist [IL-1 RA], IL-10, IL-12 subunit P40, IL-6, IL-8, macrophage inflammatory protein 1β [MIP-1β], monocyte chemotactic protein 1 [MCP-1], and tumour necrosis factor [TNF]) were analysed by the appropriate Luminex assays. ISG expression analysis was conducted for three genes, ISG15, MX1 and OAS1 using quantitative polymerase chain reaction. Descriptive statistics were used to summarise PD parameters over time, and relative fold-changes from baseline values were calculated. Serum levels of IFN-α were measured by ELISA. Serum levels of IP-10, IFN-γ, TNF-α, IL-12 (subunit P40), IL-6, IL-1β, IL-1RA, IL-18, MCP-1, MIP-1β, G-CSF, GM-CSF, IL-10, IL-15 were measured by Luminex xMAP technology. The LLOQ for IFN-α was determined at 12.5 pg/mL and at 25 pg/mL for all other cytokines measured. Fold changes for each of the cytokines were calculated compared to predose values or LLOQ-1 values if predose values were below LLOQ. IFN-stimulated gene (ISG) expression analysis was conducted for 3 genes, ISG15, MX1, and OAS1, using quantitative polymerase chain reaction (qPCR) on collected whole blood samples. For the ISGs, relative fold changes from baseline were calculated according to the delta delta Cycle threshold (Ct) method (2^[Delta Delta Ct]). Assessments were done for Part 1 predose and postdose: 1.5 hours, 6 hours, 12 hours (Day 1), 24 hours (day 2), 48 hours (Day 3), 96 hours (Day 5), follow-up Week 2. For the Part 2, assessments were done predose and post the first and fourth dose: 2 hours, 4 hours, 12 hours, 24 hours, 48 hours, 96 hours and one week follow-up; and post the second and third doses: 12 hours and 48 hours.

[5] = single dose 0.6 mg, 12 hours post dosing

Chain of CYP3A4 (P08684 whole entry): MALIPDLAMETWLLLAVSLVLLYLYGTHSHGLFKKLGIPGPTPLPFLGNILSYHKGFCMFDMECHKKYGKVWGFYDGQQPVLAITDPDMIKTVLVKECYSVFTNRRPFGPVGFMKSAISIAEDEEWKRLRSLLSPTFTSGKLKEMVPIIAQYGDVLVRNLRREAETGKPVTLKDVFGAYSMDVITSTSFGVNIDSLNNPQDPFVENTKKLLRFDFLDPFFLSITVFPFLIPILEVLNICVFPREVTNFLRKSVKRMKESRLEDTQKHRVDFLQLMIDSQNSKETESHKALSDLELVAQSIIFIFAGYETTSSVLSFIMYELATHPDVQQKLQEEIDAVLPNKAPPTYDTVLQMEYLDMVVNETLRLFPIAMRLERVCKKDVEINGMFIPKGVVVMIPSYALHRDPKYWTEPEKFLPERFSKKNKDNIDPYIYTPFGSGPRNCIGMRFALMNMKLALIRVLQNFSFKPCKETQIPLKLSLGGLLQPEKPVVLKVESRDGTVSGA

CCCCOc1nc(N)c2[nH]cc(Cc3ccc(CN4CCCC4)cc3)c2n1 [Compound 4]
CYP3A4 substrate [1]: substrate | IC50 [1]: 0.59 µM | IC50 [2]: ≥ 1.97 µM | effects on respiratory or central nervous system parameters [3]: no relevant effects | number of the 14 cytokines evaluated that increased ≥2-fold versus baseline (IFN-α, IP-10, IL-1 RA, MCP-1, IL-6) ([4]; single dose): 5 | time within which cytokine levels and ISG expression peaked ([4]; single dose): 12 to 24 h | induction of ISGs or cytokines ([4]; single dose 0.2 mg): No relevant induction of ISGs or cytokines | participants with ≥2 relative fold increase in ISG15 expression from baseline in the first 96 hours ([4]; single dose 0.2 mg fasted): 0 n (%) | participants with ≥2 relative fold increase in MX1 expression from baseline in the first 96 hours ([4]; single dose 0.2 mg fasted): 1 (20.0%) n (%) | participants with ≥2 relative fold increase in OAS1 expression from baseline in the first 96 hours ([4]; single dose 0.2 mg fasted): 0 n (%) | subjects with ≥2-fold change from baseline in GCSF within 96 hours ([4]; single dose 0.2 mg fasted): 0 n (%) | subjects with ≥2-fold change from baseline in GMCSF within 96 hours ([4]; single dose 0.2 mg fasted): 0 n (%) | subjects with ≥2-fold change from baseline in IFN-α within 96 hours ([4]; single dose 0.2 mg fasted): 0 n (%) | subjects with ≥2-fold change from baseline in IFN-γ within 96 hours ([4]; single dose 0.2 mg fasted): 0 n (%) | subjects with ≥2-fold change from baseline in IL-1RA within 96 hours ([4]; single dose 0.2 mg fasted): 0 n (%) | subjects with ≥2-fold change from baseline in IL-1β within 96 hours ([4]; single dose 0.2 mg fasted): 0 n (%) | subjects with ≥2-fold change from baseline in IL-6 within 96 hours ([4]; single dose 0.2 mg fasted): 1 (20.0%) n (%) | subjects with ≥2-fold change from baseline in IL-8 within 96 hours ([4]; single dose 0.2 mg fasted): 0 n (%) | subjects with ≥2-fold change from baseline in IL-10 within 96 hours ([4]; single dose 0.2 mg fasted): 0 n (%) | subjects with ≥2-fold change from baseline in IL-12 subunit P40 within 96 hours ([4]; single dose 0.2 mg fasted): 0 n (%) | subjects with ≥2-fold change from baseline in IP-10 within 96 hours ([4]; single dose 0.2 mg fasted): 0 n (%) | subjects with ≥2-fold change from baseline in MCP-1 within 96 hours ([4]; single dose 0.2 mg fasted): 0 n (%) | subjects with ≥2-fold change from baseline in MIP-1β within 96 hours ([4]; single dose 0.2 mg fasted): 0 n (%) | subjects with ≥2-fold change from baseline in TNF-α within 96 hours ([4]; single dose 0.2 mg fasted): 0 n (%) | treated subjects with ≥2-fold increase from baseline for all 3 ISGs within the first 96 hours ([4]; single dose 0.6 mg): Five of 6 | participants with ≥2 relative fold increase in ISG15 expression from baseline in the first 96 hours ([4]; single dose 0.6 mg fasted): 5 (83.3%) n (%) | participants with ≥2 relative fold increase in MX1 expression from baseline in the first 96 hours ([4]; single dose 0.6 mg fasted): 5 (83.3%) n (%) | participants with ≥2 relative fold increase in OAS1 expression from baseline in the first 96 hours ([4]; single dose 0.6 mg fasted): 5 (83.3%) n (%) | subjects with ≥2-fold change from baseline in GCSF within 96 hours ([4]; single dose 0.6 mg fasted): 1 (16.7%) n (%) | subjects with ≥2-fold change from baseline in GMCSF within 96 hours ([4]; single dose 0.6 mg fasted): 0 n (%) | subjects with ≥2-fold change from baseline in IFN-α within 96 hours ([4]; single dose 0.6 mg fasted): 0 n (%) | subjects with ≥2-fold change from baseline in IFN-γ within 96 hours ([4]; single dose 0.6 mg fasted): 0 n (%) | subjects with ≥2-fold change from baseline in IL-1RA within 96 hours ([4]; single dose 0.6 mg fasted): 0 n (%) | subjects with ≥2-fold change from baseline in IL-1β within 96 hours ([4]; single dose 0.6 mg fasted): 0 n (%) | subjects with ≥2-fold change from baseline in IL-6 within 96 hours ([4]; single dose 0.6 mg fasted): 0 n (%) | subjects with ≥2-fold change from baseline in IL-8 within 96 hours ([4]; single dose 0.6 mg fasted): 0 n (%) | subjects with ≥2-fold change from baseline in IL-10 within 96 hours ([4]; single dose 0.6 mg fasted): 0 n (%) | subjects with ≥2-fold change from baseline in IL-12 subunit P40 within 96 hours ([4]; single dose 0.6 mg fasted): 0 n (%) | subjects with ≥2-fold change from baseline in MIP-1β within 96 hours ([4]; single dose 0.6 mg fasted): 0 n (%) | subjects with ≥2-fold change from baseline in TNF-α within 96 hours ([4]; single dose 0.6 mg fasted): 0 n (%) | maximum concentration of IP-10 [4, 5]: 1,322.0 pg/mL | maximum concentration of MCP-1 [4, 5]: 878.2 pg/mL | increased expression of cytokines and ISGs, fed versus fasted state ([4]; single dose 1.25 mg): less frequently observed in the 1.25 mg fed state than in the fasted state | treated subjects with ≥2-fold increase from baseline for all 3 ISGs within the first 96 hours ([4]; single dose 1.25 mg): all treated subjects | participants with ≥2 relative fold increase in ISG15 expression from baseline in the first 96 hours ([4]; single dose 1.25 mg fasted): 8 (100%) n (%) | participants with ≥2 relative fold increase in MX1 expression from baseline in the first 96 hours ([4]; single dose 1.25 mg fasted): 8 (100%) n (%) | participants with ≥2 relative fold increase in OAS1 expression from baseline in the first 96 hours ([4]; single dose 1.25 mg fasted): 8 (100%) n (%) | subjects with IFN-α levels 100 pg/mL coinciding with flu-like AEs and low lymphocytes ([4]; single dose 1.25 mg fasted): 3 of 8 | subjects with ≥2-fold change from baseline in GCSF within 96 hours ([4]; single dose 1.25 mg fasted): 1 (12.5%) n (%) | subjects with ≥2-fold change from baseline in GMCSF within 96 hours ([4]; single dose 1.25 mg fasted): 0 n (%) | subjects with ≥2-fold change from baseline in IFN-γ within 96 hours ([4]; single dose 1.25 mg fasted): 2 (25.0%) n (%) | subjects with ≥2-fold change from baseline in IL-1β within 96 hours ([4]; single dose 1.25 mg fasted): 0 n (%) | subjects with ≥2-fold change from baseline in IL-6 within 96 hours ([4]; single dose 1.25 mg fasted): 1 (12.5%) n (%) | subjects with ≥2-fold change from baseline in IL-8 within 96 hours ([4]; single dose 1.25 mg fasted): 0 n (%) | subjects with ≥2-fold change from baseline in IL-10 within 96 hours ([4]; single dose 1.25 mg fasted): 0 n (%) | subjects with ≥2-fold change from baseline in IL-12 subunit P40 within 96 hours ([4]; single dose 1.25 mg fasted): 0 n (%) | subjects with ≥2-fold change from baseline in MIP-1β within 96 hours ([4]; single dose 1.25 mg fasted): 0 n (%) | subjects with ≥2-fold change from baseline in TNF-α within 96 hours ([4]; single dose 1.25 mg fasted): 0 n (%) | treated females with 2-fold increase in IFN-α ([4]; single dose 1.25 mg fasted): 2 of the 3 | treated male subjects with 2-fold increase in IFN-α ([4]; single dose 1.25 mg fasted): 2 out of 5 | IFNα levels in subjects with increase, range ([4]; single dose 1.25 mg fasted, 4/8 subjects): 63 to 533 pg/mL | increase in IFN-α in the fed state among the 3 subjects with increase in the fasted state ([4]; single dose 1.25 mg fed): none showed an increase in IFN-α in the fed state | treated male subjects with ≥2-fold increase in IFN-α ([4]; single dose 1.8 mg): 1 of the 5 | treated subjects with ≥2-fold increase from baseline for all 3 ISGs within the first 96 hours ([4]; single dose 1.8 mg): all treated subjects | participants with ≥2 relative fold increase in ISG15 expression from baseline in the first 96 hours ([4]; single dose 1.8 mg fasted): 6 (100%) n (%) | participants with ≥2 relative fold increase in MX1 expression from baseline in the first 96 hours ([4]; single dose 1.8 mg fasted): 6 (100%) n (%) | participants with ≥2 relative fold increase in OAS1 expression from baseline in the first 96 hours ([4]; single dose 1.8 mg fasted): 6 (100%) n (%) | subjects with IFN-α levels 100 pg/mL coinciding with flu-like AEs and low lymphocytes ([4]; single dose 1.8 mg fasted): 2 of 6 | subjects with ≥2-fold change from baseline in GCSF within 96 hours ([4]; single dose 1.8 mg fasted): 0 n (%) | subjects with ≥2-fold change from baseline in GMCSF within 96 hours ([4]; single dose 1.8 mg fasted): 0 n (%) | subjects with ≥2-fold change from baseline in IFN-γ within 96 hours ([4]; single dose 1.8 mg fasted): 2 (33.3%) n (%) | subjects with ≥2-fold change from baseline in IL-1β within 96 hours ([4]; single dose 1.8 mg fasted): 0 n (%) | subjects with ≥2-fold change from baseline in IL-6 within 96 hours ([4]; single dose 1.8 mg fasted): 1 (16.7%) n (%) | subjects with ≥2-fold change from baseline in IL-8 within 96 hours ([4]; single dose 1.8 mg fasted): 0 n (%) | subjects with ≥2-fold change from baseline in IL-10 within 96 hours ([4]; single dose 1.8 mg fasted): 0 n (%) | subjects with ≥2-fold change from baseline in IL-12 subunit P40 within 96 hours ([4]; single dose 1.8 mg fasted): 0 n (%) | subjects with ≥2-fold change from baseline in MIP-1β within 96 hours ([4]; single dose 1.8 mg fasted): 0 n (%) | subjects with ≥2-fold change from baseline in TNF-α within 96 hours ([4]; single dose 1.8 mg fasted): 0 n (%) | time within which cytokine levels and ISG expression returned to baseline ([4]; single dose, post-administration): 48 to 96 h | time of return to baseline after dosing ([4]; two highest fasted dose groups): approximately 96 hours
